We go through 15 compounds from patent US20230233569A1 (Revolution Medicines, Inc., priority 2020, published 2023).

Read-outs that look alike come from different tables or passages of the source.

For data set [1] the following is noted: ester bond, 18-membered ring, EDCI/HOBt/DIPEA, DCM, 25.0 °C.
Data set [2] concerns P70S6K (Thr389) phosphorylation (mTORC1) in MDA-MB-468 cells. Briefly: Cell based AlphaLISA assay, mTOR kinase cellular assay: inhibition of p-P70S6K (T389) in MDA-MB-468 cells. Put shortly:
(§1)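 MDA-MB-468 cells treated with compound at 0.017-1,000 nM for two to four hours at 37° C, then lysed. Phospho-AKT1/2/3 S473, 4EBP1 T37/46 and P70S6K T389 quantified by AlphaLISA SureFire Ultra in duplicate; IC50 from normalized regression with control-based normalization.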
In general terms: Alpha assays give light when donor and acceptor beads are brought close together.

Data set [3] deals with AKT1/2/3 (Ser473) phosphorylation (mTORC2) in MDA-MB-468 cells. In words: Cell based AlphaLISA assay, mTOR kinase cellular assay: inhibition of p-Akt (S473) in MDA-MB-468 cells. Put shortly:
as §1

The test system of data set [4] is 4EBP1 (Thr37/46) phosphorylation (mTORC1) in MDA-MB-468 cells. Briefly: Cell based AlphaLISA assay, mTOR kinase cellular assay: inhibition of p-4E-BP1 (T37/46) in MDA-MB-468 cells. Put shortly:
as §1

Data set [5] deals with Capan-2 KRASG12V/wt xenograft. In words: In vivo efficacy, Capan-2 CDX model. The following applies: Compound A 100 mg/kg po bid. As for the experimental part:
Capan-2 cells were implanted in 50% Matrigel. Animals were randomized and treatment was initiated at average tumor volume of ˜180 mm3. […] Ns=no significance; ***p<0.001 by one-way ANOVA.
Once tumors reached an average size of ˜180 mm3, mice were randomized to treatment groups to start the administration of test articles or vehicle. […] Body weight and tumor volume (using calipers) was measured twice weekly until study endpoints.

The mark [6] stands for this setting: Homo sapiens, read-out: pIC50 for Inhibition of mTORC1 and mTORC2 Substarte Phosphorylation p-P70S6K-(T389) (converted).
The mark [7] stands for this setting: Homo sapiens, read-out: pIC50 for Inhibition of mTORC1 and mTORC2 Substarte Phosphorylation p-AKT1/2/3-(S473) (converted).
The mark [8] stands for this setting: Homo sapiens, read-out: pIC50 for Inhibition of mTORC1 and mTORC2 Substarte Phosphorylation p-4E-BP1-(T37/46) (converted).

Take `CC(C)[Si](Oc1cc2cc(c1)-c1ccc3[nH]c(I)c(c3c1)CC(C)(C)COC(=O)[C@@H]1CCCN(N1)C(=O)[C@@H](NC(=O)OC(C)(C)C)C2)(C(C)C)C(C)C`: the ring closure, isolated yield in data set [1] (from CC(C)[Si](Oc1cc(C[C@H](NC(=O)OC(C)(C)C)C(=O)N2CCC[C@@H](C(=O)O)N2)cc(-c2ccc3[nH]c(I)c(CC(C)(C)CO)c3c2)c1)(C(C)C)C(C)C, 22.8 mM, 16.0 h) came to 50%.
In data set [1] (from CCn1c(-c2ccccc2COC)c(CC(C)(C)CO)c2cc(-c3cc(C[C@H](NC(=O)OC(C)(C)C)C(=O)N4CCC[C@@H](C(=O)O)N4)cc([N+](=O)[O-])c3)ccc21, 6.4 mM), `CCn1c(-c2ccccc2COC)c2c3cc(ccc31)-c1cc(cc([N+](=O)[O-])c1)C[C@H](NC(=O)OC(C)(C)C)C(=O)N1CCC[C@H](N1)C(=O)OCC(C)(C)C2` came in with a ring closure, isolated yield of 73%.
Turning to `CO[C@H]1C[C@@H]2CC[C@@H](C)[C@@](O)(O2)C(=O)C(=O)N2CCCC[C@H]2C(=O)O[C@H]([C@H](C)C[C@@H]2CC[C@@H](OC(=O)N3CCc4nc(N5CCN(c6ncc(C(=O)NCCOCCOCCOCCOCCC(=O)N7CCc8cc(Cn9nc(-c%10ccc%11oc(N)nc%11c%10)c%10c(N)ncnc%109)ccc8C7)cn6)[C@@H](C(=O)O)C5)ncc4C3)[C@H](OC)C2)C[C@@H](OC)[C@H](C)/C=C(\C)[C@@H](O)[C@@H](OC)C(=O)[C@H](C)C[C@H](C)/C=C/C=C/C=C/1C` [Example 105], the results for the IC50 in data set [2] (setting [6]), in data set [3] (setting [7]) and in data set [4] (setting [8]) were not above 1 nM, more than 1000 nM and 3.16 to 31.6 nM, respectively.
The corresponding values for `CO[C@H]1C[C@@H]2CC[C@@H](C)[C@@](O)(O2)C(=O)C(=O)N2CCCC[C@H]2C(=O)O[C@H]([C@H](C)C[C@@H]2CC[C@@H](OC(=O)NCc3cnc(N4CCN(c5ncc(C(=O)NCCOCCOCCOCCOCCC(=O)N6CCc7cc(Cn8nc(-c9cnc%10[nH]ccc%10c9)c9c(N)ncnc98)ccc7C6)c(N)n5)CC4)nc3)[C@H](OC)C2)CC(=O)[C@H](C)/C=C(\C)[C@@H](O)[C@@H](OC)C(=O)[C@H](C)C[C@H](C)/C=C/C=C/C=C/1C` [Example 108] are 1 to 10 nM, more than 1000 nM and more than 1000 nM.
Take `CO[C@H]1C[C@@H]2CC[C@@H](C)[C@@](O)(O2)C(=O)C(=O)N2CCCC[C@H]2C(=O)O[C@H]([C@H](C)C[C@@H]2CC[C@@H](OC(=O)N3CCc4nc(N5CCN(c6ncc(C(=O)NCCOCCOCCOCCOCCC(=O)N7CCc8cc(Cn9nc(-c%10cnc%11[nH]ccc%11c%10)c%10c(N)ncnc%109)ccc8C7)c(N)n6)CC5)ncc4C3)[C@H](OC)C2)CC(=O)[C@H](C)/C=C(\C)[C@@H](O)[C@@H](OC)C(=O)[C@H](C)C[C@H](C)/C=C/C=C/C=C/1C` [Example 109]: the IC50 in data set [2] (setting [6]) was 10 to 1000 nM; in data set [3] (setting [7]) it was more than 1000 nM; in data set [4] (setting [8]), more than 1000 nM.
Take `CO[C@H]1C[C@@H]2CC[C@@H](C)[C@@](O)(O2)C(=O)C(=O)N2CCCC[C@H]2C(=O)O[C@H]([C@H](C)C[C@@H]2CC[C@@H](OC(=O)NCCOCCOCCOCCOCCOCCOCCC(=O)NC3CCN(CC(=O)N4CCc5cc(Cn6nc(-c7ccc8oc(N)nc8c7)c7c(N)ncnc76)ccc5C4)CC3)[C@H](OC)C2)C[C@@H](O)[C@H](C)/C=C(\C)[C@@H](O)[C@@H](OC)C(=O)[C@H](C)C[C@H](C)/C=C/C=C/C=C/1C` [Example 112]: the IC50 in data set [2] (setting [6]) was not above 1 nM; in data set [3] (setting [7]) it was more than 1000 nM; in data set [4] (setting [8]), more than 1000 nM.
`CO[C@H]1C[C@@H]2CC[C@@H](C)[C@@](O)(O2)C(=O)C(=O)N2CCCC[C@H]2C(=O)O[C@H]([C@H](C)C[C@@H]2CC[C@@H](OC(=O)NCCOCCOCCOCCOCCOCCOCCC(=O)N3CCC(N4CCC(C(=O)N5CCc6cc(Cn7nc(-c8ccc9oc(N)nc9c8)c8c(N)ncnc87)ccc6C5)CC4)CC3)[C@H](OC)C2)C[C@@H](O)[C@H](C)/C=C(\C)[C@@H](O)[C@@H](OC)C(=O)[C@H](C)C[C@H](C)/C=C/C=C/C=C/1C` [Example 113]: the IC50 in data set [2] (setting [6]) was not above 1 nM; in data set [3] (setting [7]), 3.16 to 31.6 nM; in data set [4] (setting [8]), not above 3.16 nM.
On the same counts, the results for `CO[C@H]1C[C@@H]2CC[C@@H](C)[C@@](O)(O2)C(=O)C(=O)N2CCCC[C@H]2C(=O)O[C@H]([C@H](C)C[C@@H]2CC[C@@H](OC(=S)NCc3cnc(N4CCN(C(=O)CCOCCN5CCN(c6ncc(C(=O)N7CCc8cc(Cn9nc(-c%10ccc%11oc(N)nc%11c%10)c%10c(N)ncnc%109)ccc8C7)cn6)CC5)CC4)nc3)[C@H](OC)C2)C[C@@H](O)[C@H](C)/C=C(\C)[C@@H](O)[C@@H](OC)C(=O)[C@H](C)C[C@H](C)/C=C/C=C/C=C/1C` [Example 117] are not above 1 nM, 3.16 to 31.6 nM and not above 3.16 nM.
`CO[C@H]1C[C@@H]2CC[C@@H](C)[C@@](O)(O2)C(=O)C(=O)N2CCCC[C@H]2C(=O)O[C@H]([C@H](C)C[C@@H]2CC[C@@H](OC(=O)NCc3cnc(N4CCN(C(=O)CCOCCOCCN5CCN(c6ncc(C(=O)N7CCc8cc(Cn9nc(-c%10cnc%11[nH]ccc%11c%10)c%10c(N)ncnc%109)ccc8C7)cn6)CC5)CC4)nc3)[C@H](OC)C2)CC(=O)[C@H](C)/C=C(\C)[C@@H](O)[C@@H](OC)C(=O)[C@H](C)C[C@H](C)/C=C/C=C/C=C/1C` [Example 123]: the IC50 in data set [2] (setting [6]) was not above 1 nM; in data set [3] (setting [7]) it was 31.6 to 1000 nM; in data set [4] (setting [8]) it was not above 3.16 nM.
As for `CO[C@H]1C[C@@H]2CC[C@@H](C)[C@@](O)(O2)C(=O)C(=O)N2CCCC[C@H]2C(=O)O[C@H]([C@H](C)C[C@@H]2CC[C@@H](OC(=O)N3CCc4nc(N5CCN(C(=O)CCOCCN6CCN(c7ncc(C(=O)N8CCc9cc(Cn%10nc(-c%11cnc%12[nH]ccc%12c%11)c%11c(N)ncnc%11%10)ccc9C8)cn7)CC6)CC5)ncc4C3)[C@H](OC)C2)CC(=O)[C@H](C)/C=C(\C)[C@@H](O)[C@@H](OC)C(=O)[C@H](C)C[C@H](C)/C=C/C=C/C=C/1C` [Example 124], the IC50 in data set [2] (setting [6]) was not above 1 nM; in data set [3] (setting [7]) it was 3.16 to 31.6 nM; in data set [4] (setting [8]), not above 3.16 nM.
As to `CO[C@H]1C[C@@H]2CC[C@@H](C)[C@@](O)(O2)C(=O)C(=O)N2CCCC[C@H]2C(=O)O[C@H]([C@H](C)C[C@@H]2CC[C@@H](OC(=O)NCc3cnc(N4CCN(CCOCCN5CCN(c6ncc(C(=O)N7CCc8cc(Cn9nc(-c%10cnc%11[nH]ccc%11c%10)c%10c(N)ncnc%109)ccc8C7)cn6)CC5)CC4)nc3)[C@H](OC)C2)CC(=O)[C@H](C)/C=C(\C)[C@@H](O)[C@@H](OC)C(=O)[C@H](C)C[C@H](C)/C=C/C=C/C=C/1C` [Example 127], the IC50 was not above 1 nM in data set [2] (setting [6]), more than 1000 nM in data set [3] (setting [7]) and 3.16 to 31.6 nM in data set [4] (setting [8]).
The corresponding values for `CO[C@H]1C[C@@H]2CC[C@@H](C)[C@@](O)(O2)C(=O)C(=O)N2CCCC[C@H]2C(=O)O[C@H]([C@H](C)C[C@@H]2CC[C@@H](OC(=O)N3CCc4nc(N5CCN(CCOCCN6CCN(c7ncc(C(=O)N8CCc9cc(Cn%10nc(-c%11cnc%12[nH]ccc%12c%11)c%11c(N)ncnc%11%10)ccc9C8)cn7)CC6)CC5)ncc4C3)[C@H](OC)C2)CC(=O)[C@H](C)/C=C(\C)[C@@H](O)[C@@H](OC)C(=O)[C@H](C)C[C@H](C)/C=C/C=C/C=C/1C` [Example 128] are not above 1 nM, 31.6 to 1000 nM and 3.16 to 31.6 nM.
`CC(C)n1nc(-c2ccc3oc(N)nc3c2)c2c(N)ncnc21` [MLN-128]: the IC50 in data set [2] (two to four hours at 37° C., AlphaLisa SureFire Ultra, read-out: IC50 for Inhibition of mTORC1 and mTORC2 Substarte Phosphorylation, p-P70S6K-(T389)) amounted to 1.4 nM; in data set [3] (two to four hours at 37° C., AlphaLisa SureFire Ultra, read-out: IC50 for Inhibition of mTORC1 and mTORC2 Substarte Phosphorylation, p-AKT1/2/3-(S473)), 3.7 nM; in data set [4] (two to four hours at 37° C., AlphaLisa SureFire Ultra, read-out: IC50 for Inhibition of mTORC1 and mTORC2 Substarte Phosphorylation, p-4E-BP1-(T37/46)), 16 nM.
Regarding `Cc1nc(N2CCC3(CC2)CO[C@@H](C)[C@H]3N)c(CO)nc1-c1cccc(Cl)c1Cl` [RMC-4550], the “TGI, single agent” value in data set [5] (RMC-4550 20 mg/kg po every other day, Day 40) stood at 39%. In addition, the tolerability result in data set [5] (RMC-4550 20 mg/kg po q2d, combination, 40 days) is “well tolerated”.
Regarding `CO[C@H]1C[C@@H]2CC[C@@H](C)[C@@](O)(O2)C(=O)C(=O)N2CCCC[C@H]2C(=O)O[C@H]([C@H](C)C[C@@H]2CC[C@@H](O)[C@H](OC)C2)CC(=O)[C@H](C)/C=C(\C)[C@@H](O)[C@@H](OC)C(=O)[C@H](C)C[C@H](C)/C=C/C=C/C=C/1C` [Rapamycin, rapamycin, reference compound], the IC50 in data set [2] (Homo sapiens, 4 h, two to four hours at 37° C., AlphaLisa SureFire Ultra, read-out: IC50 for Inhibition of mTORC1 and mTORC2 Substarte Phosphorylation, p-P70S6K-(T389)) is 0.2 nM; in data set [3] (Homo sapiens, 4 h, two to four hours at 37° C., AlphaLisa SureFire Ultra, read-out: IC50 for Inhibition of mTORC1 and mTORC2 Substarte Phosphorylation, p-AKT1/2/3-(S473)), more than 1000 nM; in data set [4] (Homo sapiens, 4 h, two to four hours at 37° C., AlphaLisa SureFire Ultra, read-out: IC50 for Inhibition of mTORC1 and mTORC2 Substarte Phosphorylation, p-4E-BP1-(T37/46)), more than 1000 nM.
